From BindingDB's records for doi:10.1021/jm00126a013 (University of California, 1989)

How the values were obtained:
[1] = biological target: Vesicular acetylcholine transporter (Torpedo californica); experiment: Inhibition of active transport of [3H]acetylcholine using purified Torpedo californica synaptic vesicles
[2] = biological target: Vesicular acetylcholine transporter (Torpedo californica); experiment: as above; remark: listed apart in the source

| Compound | IC50 [1] [nM] | IC50 [2] [nM] |
| --- | --- | --- |
| O=C(CCCCC1SCC2NC(=O)NC21)NCC(=O)NCC(=O)Nc1cccc2c1CC(N1CCC(c3ccccc3)CC1)C(O)C2 (configuration not stated) | 200 |  |
| O[C@@H]1[C@H](O)CCC[C@H]1N1CCC(c2ccccc2)CC1 | 100 |  |
| OC1CCCCC1N1CCCCC1 (configuration not stated) | > 40000 |  |
| CCC(O)C[N+]1(C)CCC(c2ccccc2)CC1 (configuration not stated) | 2000 |  |
| CC1(c2ccccc2)CCCN(C2CCCCC2O)C1 (configuration not stated) | 4000 |  |
| OC1CCCCC1N1CC=C(c2ccc(Cl)cc2)CC1 (configuration not stated) | 200 |  |
| OC1CCCCC1N1C=NC(c2ccccc2)C1 (configuration not stated) | 40000 |  |
| Nc1cccc2c1CC(N1CCC(c3ccccc3)CC1)C(O)C2 (configuration not stated) | 100 |  |
| O=C(CCCCC1SCC2NC(=O)NC21)Nc1cccc2c1CC(N1CCC(c3ccccc3)CC1)C(O)C2 (configuration not stated) | 100 |  |
| CC(=O)OCC[N+]1(C)CCC(c2ccccc2)CC1 (configuration not stated) | 4000 |  |
| OC1CCCCC1N1CCN(c2ccccc2)CC1 (configuration not stated) | 300 |  |
| CN(CCCc1ccccc1)C1CCCCC1O (configuration not stated) | 2000 |  |
| C[N+]1(CCO)CCC(c2ccccc2)CC1 (configuration not stated) | 8000 |  |
| COc1ccccc1N1CCN(C2CC3CCCCC3CC2O)CC1 (configuration not stated) |  | 300 |
| Nc1ccc(C2CCN(C3CCCCC3O)CC2)cc1 (configuration not stated) | 500 |  |
| CC(=O)OC1CCCCC1N1CCC(c2ccccc2)CC1 (configuration not stated) | 2000 |  |
| CN(CCc1ccccc1)C1CCCCC1O (configuration not stated) | 20000 |  |
| CNc1ccc(C2CCN(C3CCCCC3O)CC2)cc1 (configuration not stated) | 400 |  |
| O=C(O)CCC(=O)Nc1cccc2c1CC(N1CCC(c3ccccc3)CC1)C(O)C2 (configuration not stated) | 50 |  |
| OC1CCCCC1N1CC=C(c2ccccc2)CC1 (configuration not stated) | 200 |  |
| OC1CN(C2CCCCC2O)CCC1c1ccccc1 (configuration not stated) | 200 |  |
| COc1ccc2c3c1OC1C(O)C=CC4C(C2)N(C2CCCCC2O)CCC341 (configuration not stated) | 80000 |  |
| OC1CCCCC1NC1CCc2ccccc21 (configuration not stated) | 3000 |  |

| Compound | IC50 [1] [nM] | IC50 [2] [nM] |
| --- | --- | --- |
| CC(C)(C)[C@H]1CC[C@@H](N2CCC(c3ccccc3)CC2)[C@H](O)C1 | 90 |  |
| O=C(O)CCC(=O)Nc1cccc2c1CC(O)C(N1CCC(c3ccccc3)CC1)C2 (configuration not stated) | 500 |  |
| CC(=O)Nc1ccc(I)c2c1CC(N1CCC(c3ccccc3)CC1)C(O)C2 (configuration not stated) | 300 |  |
| O=c1[nH]c2ccccc2n1C1CCN(C2CCCCC2O)CC1 (configuration not stated) | 1000 |  |
| O=C(Nc1cccc2c1CC(O)C(N1CCC(c3ccccc3)CC1)C2)C(F)(F)F (configuration not stated) | 2000 |  |
| CN(C)c1ccc(C2CCN(C3CCCCC3O)CC2)cc1 (configuration not stated) | 300 |  |
| CCC(CN1CCC(c2ccccc2)CC1)OC(C)=O (configuration not stated) | 800 |  |
| CCC(O)CN1CCC(c2ccccc2)CC1 (configuration not stated) | 300 |  |
| CC1(O)CCCC[C@H]1N1CCC(c2ccccc2)CC1 (some centres not stated) | 6000 |  |
| OC1CCCCC1N1CCC(c2ccc(Cl)cc2)CC1 (configuration not stated) | 100 |  |
| CC1CN(C2CCCCC2O)CCN1c1ccccc1 (configuration not stated) | 300 |  |
| OC1CCCCC1N1CCN(Cc2ccc3c(c2)OCO3)CC1 (configuration not stated) | 300 |  |
| OC1CCCCC1N1CCC(CCC2CCN(C3CCCCC3O)CC2)CC1 (configuration not stated) | > 1000 |  |
| SC1CCCCC1N1CCC(c2ccccc2)CC1 (configuration not stated) | 4000 |  |
| Cc1ccc(C)c(N2CCN(C3CCCCC3O)CC2)c1 (configuration not stated) | 100 |  |
| CC(=O)Nc1ccc(C2CCN(C3CCCCC3O)CC2)cc1 (configuration not stated) | 20000 |  |
| O=C1CCC2(O)C3Cc4ccc(O)c5c4C2(CCN3C2CCCCC2O)C1O5 (configuration not stated) | > 100000 |  |
| CC(=O)OCCN1CCC(c2ccccc2)CC1 | 9000 |  |
| CN(Cc1ccccc1)C1CCCCC1O (configuration not stated) | 10000 |  |
| OC1CCCCC1N1CCC(Cc2ccccc2)CC1 (configuration not stated) | 300 |  |
| CC(=O)OC1CCCCC1[N+]1(C)CCC(c2ccccc2)CC1 (configuration not stated) | 5000 |  |
| O=[N+]([O-])c1ccc(C2CCN(C3CCCCC3O)CC2)c([N+](=O)[O-])c1 (configuration not stated) | 300 |  |
| OC1CCCCC1N1CCC(CCCc2ccccc2)CC1 (configuration not stated) | 70 |  |

| Compound | IC50 [1] [nM] | IC50 [2] [nM] |
| --- | --- | --- |
| CC(=O)Nc1cccc2c1CC(O)C(N1CCC(c3ccccc3)CC1)C2 (configuration not stated) | > 2000 |  |
| O[C@H]1[C@H](N2CCC(c3ccccc3)CC2)CCC[C@H]1c1ccccc1 | 600 |  |
| OC[C@H]1CC[C@@H](O)[C@H](N2CCC(c3ccccc3)CC2)C1 | 800 |  |
| OC1CCCCC1N1CCC(CCCC2CCN(C3CCCCC3O)CC2)CC1 (configuration not stated) | 200 |  |
| OC1CCCCC1N1CC2CCC(CC2)C1 (configuration not stated) | 20000 |  |
| O=[N+]([O-])c1ccc(C2CCN(C3CCCCC3O)CC2)cc1 (configuration not stated) | 100 |  |
| OC1C2CCC1C(N1CCC(c3ccccc3)CC1)C2 (configuration not stated) | 10000 |  |
| Nc1cccc2c1CC(O)C(N1CCC(c3ccccc3)CC1)C2 (configuration not stated) | 300 |  |
| OC1CCCC1N1CCC(c2ccccc2)CC1 (configuration not stated) | 2000 |  |
| O=C(c1ccccc1)N1CCN(C2CCCCC2O)CC1 (configuration not stated) | 10000 |  |
| O=C1CCCCC1N1CCC(c2ccccc2)CC1 (configuration not stated) | 40000 |  |
| C[N+]1(C2CCCCC2O)CCC(c2ccccc2)CC1 (configuration not stated) | > 1000 |  |
| OCCN1CCC(c2ccccc2)CC1 | 10000 |  |
| CO[C@H]1CCC[C@@H](N2CCC(c3ccccc3)CC2)[C@@H]1O | 2000 |  |
| Cc1ccccc1N1CCN(C2CCCCC2O)CC1 (configuration not stated) | 100 |  |
| OC1CCCCC1N1CCC(C2CCN(C3CCCCC3O)CC2)CC1 (configuration not stated) | 200 |  |
| COc1ccc(N2CCN(C3CCCCC3O)CC2)cc1 (configuration not stated) | 300 |  |
| O[C@@H]1CCCC[C@H]1CN1CCC(c2ccccc2)CC1 | 2000 |  |
| O[C@H]1CCCC[C@H]1CN1CCC(c2ccccc2)CC1 | 1000 |  |
| O=C(CCC(=O)Nc1cccc2c1CC(N1CCC(c3ccccc3)CC1)C(O)C2)NNC(=O)CCC(=O)Nc1cccc2c1CC(N1CCC(c3ccccc3)CC1)C(O)C2 (configuration not stated) [N-[6-Hydroxy-7-(4-phenyl-piperidin-1-yl)-5,6,7,8-tetrahydro-naphthalen-1-yl]-4-(N'-{3-[6-hydroxy-7-(4-phenyl-piperidin-1-yl)-5,6,7,8-tetrahydro-naphthalen-1-ylcarbamoyl]-propionyl}-hydrazino)-4-oxo-butyramide] | 1000 |  |
| CC(C)(C)[C@H]1CC[C@@H](O)[C@H](N2CCC(c3ccccc3)CC2)C1 [trans-(4S)-4-tert-butyl-2-(4-phenylpiperidin-1-yl)cyclohexanol] | 20 |  |
